Measurements published in article PMC5622171 (Nature Communications, 2017).

Experiments:
Experiment in all cases: KINOMEscan kinase profiling
Format in all cases: binding
MINK = target: T1, MINK (Homo sapiens, UniProt Q8N4C8); details: read-out: %Inhibition by 10 μM SPA70
T1 construct: purchased DiscoverX (Ambit Biosciences) KINOMEscan
Outline: (§1)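 KINOMEscan profiling followed a published protocol. Kinases whose inhibition exceeded a set cut-off were then tested in a dilution series beginning at 30 µM.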

ABL2 = target: T2, ABL2 (Homo sapiens, UniProt P42684); details: read-out: %Inhibition by 10 μM SPA70
T2 construct: purchased DiscoverX (Ambit Biosciences) KINOMEscan
Outline: as §1

VEGFR2 = target: T3, VEGFR2 (Homo sapiens, UniProt P35968); details: read-out: %Inhibition by 10 μM SPA70
T3 construct: purchased DiscoverX (Ambit Biosciences) KINOMEscan
Outline: as §1

PLK1 = target: T4, PLK1 (Homo sapiens, UniProt P53350); details: read-out: %Inhibition by 10 μM SPA70
T4 construct: purchased DiscoverX (Ambit Biosciences) KINOMEscan
Outline: as §1

GRK7 = target: T5, GRK7 (Homo sapiens, UniProt Q8WTQ7); details: read-out: %Inhibition by 10 μM SPA70
T5 construct: purchased DiscoverX (Ambit Biosciences) KINOMEscan
Outline: as §1

LRRK2 = target: T6, LRRK2 (Homo sapiens, UniProt Q5S007); details: read-out: %Inhibition by 10 μM SPA70
T6 construct: purchased DiscoverX (Ambit Biosciences) KINOMEscan
Outline: as §1

FES = target: T7, FES (Homo sapiens, UniProt P07332); details: read-out: %Inhibition by 10 μM SPA70
T7 construct: purchased DiscoverX (Ambit Biosciences) KINOMEscan
Outline: as §1

GSK3A = target: T8, GSK3A (Homo sapiens, UniProt P49840)
T8 construct: purchased DiscoverX (Ambit Biosciences) KINOMEscan
Outline: as §1

MYO3B = target: T9, MYO3B (Homo sapiens, UniProt Q8WXR4); details: read-out: %Inhibition by 10 μM SPA70
T9 construct: purchased DiscoverX (Ambit Biosciences) KINOMEscan
Outline: as §1

LYN = target: T10, LYN (Homo sapiens, UniProt P07948); details: read-out: %Inhibition by 10 μM SPA70
T10 construct: purchased DiscoverX (Ambit Biosciences) KINOMEscan
Outline: as §1

TGFBR2 = target: T11, TGFBR2 (Homo sapiens, UniProt P37173); details: read-out: %Inhibition by 10 μM SPA70
T11 construct: purchased DiscoverX (Ambit Biosciences) KINOMEscan
Outline: as §1

PKAC-beta = target: T12, PKAC-beta (Homo sapiens, UniProt P22694)
T12 construct: purchased DiscoverX (Ambit Biosciences) KINOMEscan
Outline: as §1

CDKL1 = target: T13, CDKL1 (Homo sapiens, UniProt Q00532); details: read-out: %Inhibition by 10 μM SPA70
T13 construct: purchased DiscoverX (Ambit Biosciences) KINOMEscan
Outline: as §1

PRKCE = target: T14, PRKCE (Homo sapiens, UniProt Q02156); details: read-out: %Inhibition by 10 μM SPA70
T14 construct: purchased DiscoverX (Ambit Biosciences) KINOMEscan
Outline: as §1

MEK3 = target: T15, MEK3 (Homo sapiens, UniProt P46734); details: read-out: %Inhibition by 10 μM SPA70
T15 construct: purchased DiscoverX (Ambit Biosciences) KINOMEscan
Outline: as §1

TXK = target: T16, TXK (Homo sapiens, UniProt P42681); details: read-out: %Inhibition by 10 μM SPA70
T16 construct: purchased DiscoverX (Ambit Biosciences) KINOMEscan
Outline: as §1

LZK = target: T17, LZK (Homo sapiens, UniProt O43283)
T17 construct: purchased DiscoverX (Ambit Biosciences) KINOMEscan
Outline: as §1

PRKR = target: T18, PRKR (Homo sapiens, UniProt P19525)
T18 construct: purchased DiscoverX (Ambit Biosciences) KINOMEscan
Outline: as §1

PRKD2 = target: T19, PRKD2 (Homo sapiens, UniProt Q9BZL6); details: read-out: %Inhibition by 10 μM SPA70
T19 construct: purchased DiscoverX (Ambit Biosciences) KINOMEscan
Outline: as §1

FGR = target: T20, FGR (Homo sapiens, UniProt P09769); details: read-out: %Inhibition by 10 μM SPA70
T20 construct: purchased DiscoverX (Ambit Biosciences) KINOMEscan
Outline: as §1

PRKX = target: T21, PRKX (Homo sapiens, UniProt P51817); details: read-out: %Inhibition by 10 μM SPA70
T21 construct: purchased DiscoverX (Ambit Biosciences) KINOMEscan
Outline: as §1

CLK3 = target: T22, CLK3 (Homo sapiens, UniProt P49761); details: read-out: %Inhibition by 10 μM SPA70
T22 construct: purchased DiscoverX (Ambit Biosciences) KINOMEscan
Outline: as §1

EPHA6 = target: T23, EPHA6 (Homo sapiens, UniProt Q9UF33); details: read-out: %Inhibition by 10 μM SPA70
T23 construct: purchased DiscoverX (Ambit Biosciences) KINOMEscan
Outline: as §1

SNARK = target: T24, SNARK (Homo sapiens, UniProt Q9H093)
T24 construct: purchased DiscoverX (Ambit Biosciences) KINOMEscan
Outline: as §1

CDK3 = target: T25, CDK3 (Homo sapiens, UniProt Q00526)
T25 construct: purchased DiscoverX (Ambit Biosciences) KINOMEscan
Outline: as §1

EGFR = target: T26, EGFR (Homo sapiens, UniProt P00533)
T26 construct: purchased DiscoverX (Ambit Biosciences) KINOMEscan
Outline: as §1

TLK2 = target: T27, TLK2 (Homo sapiens, UniProt Q86UE8); details: read-out: %Inhibition by 10 μM SPA70
T27 construct: purchased DiscoverX (Ambit Biosciences) KINOMEscan
Outline: as §1

ERK1 = target: T28, ERK1 (Homo sapiens, UniProt P27361); details: read-out: %Inhibition by 10 μM SPA70
T28 construct: purchased DiscoverX (Ambit Biosciences) KINOMEscan
Outline: as §1

IKK-beta = target: T29, IKK-beta (Homo sapiens, UniProt O14920); details: read-out: %Inhibition by 10 μM SPA70
T29 construct: purchased DiscoverX (Ambit Biosciences) KINOMEscan
Outline: as §1

PIK3CA = target: T30, PIK3CA (Homo sapiens, UniProt P42336); details: read-out: %Inhibition by 10 μM SPA70
T30 construct: purchased DiscoverX (Ambit Biosciences) KINOMEscan
Outline: as §1

PHKG1 = target: T31, PHKG1 (Homo sapiens, UniProt Q16816); details: read-out: %Inhibition by 10 μM SPA70
T31 construct: purchased DiscoverX (Ambit Biosciences) KINOMEscan
Outline: as §1

CSNK2A2 = target: T32, CSNK2A2 (Homo sapiens, UniProt P19784); details: read-out: %Inhibition by 10 μM SPA70
T32 construct: purchased DiscoverX (Ambit Biosciences) KINOMEscan
Outline: as §1

TRPM6 = target: T33, TRPM6 (Homo sapiens, UniProt Q9BX84); details: read-out: %Inhibition by 10 μM SPA70
T33 construct: purchased DiscoverX (Ambit Biosciences) KINOMEscan
Outline: as §1

ROCK1 = target: T34, ROCK1 (Homo sapiens, UniProt Q13464); details: read-out: %Inhibition by 10 μM SPA70
T34 construct: purchased DiscoverX (Ambit Biosciences) KINOMEscan
Outline: as §1

ULK1 = target: T35, ULK1 (Homo sapiens, UniProt O75385)
T35 construct: purchased DiscoverX (Ambit Biosciences) KINOMEscan
Outline: as §1

HIPK4 = target: T36, HIPK4 (Homo sapiens, UniProt Q8NE63); details: read-out: %Inhibition by 10 μM SPA70
T36 construct: purchased DiscoverX (Ambit Biosciences) KINOMEscan
Outline: as §1

PCTK1 = target: T37, PCTK1 (Homo sapiens, UniProt Q00536); details: read-out: %Inhibition by 10 μM SPA70
T37 construct: purchased DiscoverX (Ambit Biosciences) KINOMEscan
Outline: as §1

LIMK1 = target: T38, LIMK1 (Homo sapiens, UniProt P53667); details: read-out: %Inhibition by 10 μM SPA70
T38 construct: purchased DiscoverX (Ambit Biosciences) KINOMEscan
Outline: as §1

PAK7 = target: T39, PAK7 (Homo sapiens, UniProt Q9P286); details: read-out: %Inhibition by 10 μM SPA70
T39 construct: purchased DiscoverX (Ambit Biosciences) KINOMEscan
Outline: as §1

EPHA7 = target: T40, EPHA7 (Homo sapiens, UniProt Q15375); details: read-out: %Inhibition by 10 μM SPA70
T40 construct: purchased DiscoverX (Ambit Biosciences) KINOMEscan
Outline: as §1

BRSK1 = target: T41, BRSK1 (Homo sapiens, UniProt Q8TDC3); details: read-out: %Inhibition by 10 μM SPA70
T41 construct: purchased DiscoverX (Ambit Biosciences) KINOMEscan
Outline: as §1

PIP5K1C = target: T42, PIP5K1C (Homo sapiens, UniProt O60331)
T42 construct: purchased DiscoverX (Ambit Biosciences) KINOMEscan
Outline: as §1

SRC = target: T43, SRC (Homo sapiens, UniProt P12931); details: read-out: %Inhibition by 10 μM SPA70
T43 construct: purchased DiscoverX (Ambit Biosciences) KINOMEscan
Outline: as §1

[1] = read-out: %Inhibition by 10 μM SPA70

T8 sequence (P49840 whole entry): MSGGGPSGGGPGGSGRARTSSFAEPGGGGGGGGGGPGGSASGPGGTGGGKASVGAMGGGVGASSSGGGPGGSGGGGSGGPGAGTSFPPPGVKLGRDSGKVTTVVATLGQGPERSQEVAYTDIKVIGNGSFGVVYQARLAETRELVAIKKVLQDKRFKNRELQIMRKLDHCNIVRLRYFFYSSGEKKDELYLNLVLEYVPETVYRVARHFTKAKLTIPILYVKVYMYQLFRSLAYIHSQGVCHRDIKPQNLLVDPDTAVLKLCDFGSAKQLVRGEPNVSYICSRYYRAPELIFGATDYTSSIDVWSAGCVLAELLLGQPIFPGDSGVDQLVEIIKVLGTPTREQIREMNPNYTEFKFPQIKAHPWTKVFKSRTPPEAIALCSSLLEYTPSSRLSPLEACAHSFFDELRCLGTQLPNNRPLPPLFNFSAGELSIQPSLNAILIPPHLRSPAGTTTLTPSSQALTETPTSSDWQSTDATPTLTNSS
T6 sequence (Q5S007 whole entry): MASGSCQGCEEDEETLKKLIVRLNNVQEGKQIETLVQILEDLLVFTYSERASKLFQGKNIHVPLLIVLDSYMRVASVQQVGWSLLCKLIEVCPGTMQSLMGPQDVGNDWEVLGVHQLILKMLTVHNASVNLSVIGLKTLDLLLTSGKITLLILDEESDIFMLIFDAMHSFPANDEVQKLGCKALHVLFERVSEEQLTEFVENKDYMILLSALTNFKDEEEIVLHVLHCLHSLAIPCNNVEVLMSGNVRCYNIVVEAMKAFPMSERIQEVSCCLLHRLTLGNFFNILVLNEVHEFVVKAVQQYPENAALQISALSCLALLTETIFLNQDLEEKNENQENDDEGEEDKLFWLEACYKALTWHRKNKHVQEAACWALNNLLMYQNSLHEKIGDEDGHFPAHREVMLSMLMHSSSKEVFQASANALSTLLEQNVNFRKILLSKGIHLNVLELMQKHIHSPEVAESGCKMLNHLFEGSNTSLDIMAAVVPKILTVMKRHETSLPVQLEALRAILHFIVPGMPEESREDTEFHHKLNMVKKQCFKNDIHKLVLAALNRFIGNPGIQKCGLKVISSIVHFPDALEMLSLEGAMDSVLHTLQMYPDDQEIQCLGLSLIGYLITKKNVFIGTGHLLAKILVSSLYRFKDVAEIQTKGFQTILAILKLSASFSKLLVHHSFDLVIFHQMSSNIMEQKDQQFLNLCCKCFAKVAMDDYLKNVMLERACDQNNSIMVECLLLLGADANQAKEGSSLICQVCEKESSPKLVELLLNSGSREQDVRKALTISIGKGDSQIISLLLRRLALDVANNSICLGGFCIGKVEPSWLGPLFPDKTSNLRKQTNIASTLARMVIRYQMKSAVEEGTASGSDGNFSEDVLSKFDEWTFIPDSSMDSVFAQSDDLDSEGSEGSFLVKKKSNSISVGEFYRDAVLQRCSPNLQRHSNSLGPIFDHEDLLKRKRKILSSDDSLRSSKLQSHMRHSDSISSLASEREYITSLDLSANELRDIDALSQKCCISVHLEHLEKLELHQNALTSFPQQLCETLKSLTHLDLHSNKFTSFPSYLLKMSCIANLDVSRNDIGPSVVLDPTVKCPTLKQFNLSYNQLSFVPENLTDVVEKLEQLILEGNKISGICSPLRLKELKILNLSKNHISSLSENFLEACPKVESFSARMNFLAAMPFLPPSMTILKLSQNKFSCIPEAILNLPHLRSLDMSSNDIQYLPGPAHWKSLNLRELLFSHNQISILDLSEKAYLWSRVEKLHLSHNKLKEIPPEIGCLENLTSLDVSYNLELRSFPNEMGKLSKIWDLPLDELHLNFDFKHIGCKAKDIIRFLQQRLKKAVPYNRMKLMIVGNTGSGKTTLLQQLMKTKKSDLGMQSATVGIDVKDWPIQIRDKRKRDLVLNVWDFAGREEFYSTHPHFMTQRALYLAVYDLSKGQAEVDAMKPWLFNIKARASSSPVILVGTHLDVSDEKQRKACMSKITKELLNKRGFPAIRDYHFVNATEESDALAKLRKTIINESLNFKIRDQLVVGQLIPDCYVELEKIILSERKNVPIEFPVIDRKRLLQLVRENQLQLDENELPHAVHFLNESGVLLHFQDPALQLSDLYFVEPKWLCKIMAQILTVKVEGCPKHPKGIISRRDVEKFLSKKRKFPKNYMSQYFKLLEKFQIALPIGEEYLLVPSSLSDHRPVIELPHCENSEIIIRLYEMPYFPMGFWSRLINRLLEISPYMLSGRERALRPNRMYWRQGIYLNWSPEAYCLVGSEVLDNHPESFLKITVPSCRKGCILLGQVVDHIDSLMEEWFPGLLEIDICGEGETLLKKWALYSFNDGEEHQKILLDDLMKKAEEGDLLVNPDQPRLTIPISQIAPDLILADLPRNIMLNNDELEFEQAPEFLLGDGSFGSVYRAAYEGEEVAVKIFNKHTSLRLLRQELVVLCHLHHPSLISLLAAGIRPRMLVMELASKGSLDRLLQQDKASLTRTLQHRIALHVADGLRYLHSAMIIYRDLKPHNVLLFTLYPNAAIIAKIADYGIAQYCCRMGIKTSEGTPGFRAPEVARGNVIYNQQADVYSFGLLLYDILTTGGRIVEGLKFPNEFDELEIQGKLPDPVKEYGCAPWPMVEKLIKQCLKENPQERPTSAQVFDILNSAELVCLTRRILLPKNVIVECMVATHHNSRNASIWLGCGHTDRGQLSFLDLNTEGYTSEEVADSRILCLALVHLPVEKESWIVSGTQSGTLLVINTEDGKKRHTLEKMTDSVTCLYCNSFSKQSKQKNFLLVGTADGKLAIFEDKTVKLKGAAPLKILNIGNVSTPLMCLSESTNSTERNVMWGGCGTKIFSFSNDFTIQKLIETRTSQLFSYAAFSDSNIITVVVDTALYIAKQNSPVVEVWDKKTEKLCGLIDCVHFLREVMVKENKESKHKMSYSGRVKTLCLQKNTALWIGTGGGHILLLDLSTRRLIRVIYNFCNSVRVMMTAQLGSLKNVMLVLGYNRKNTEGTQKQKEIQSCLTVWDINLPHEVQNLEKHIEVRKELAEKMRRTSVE
T13 sequence (Q00532 whole entry): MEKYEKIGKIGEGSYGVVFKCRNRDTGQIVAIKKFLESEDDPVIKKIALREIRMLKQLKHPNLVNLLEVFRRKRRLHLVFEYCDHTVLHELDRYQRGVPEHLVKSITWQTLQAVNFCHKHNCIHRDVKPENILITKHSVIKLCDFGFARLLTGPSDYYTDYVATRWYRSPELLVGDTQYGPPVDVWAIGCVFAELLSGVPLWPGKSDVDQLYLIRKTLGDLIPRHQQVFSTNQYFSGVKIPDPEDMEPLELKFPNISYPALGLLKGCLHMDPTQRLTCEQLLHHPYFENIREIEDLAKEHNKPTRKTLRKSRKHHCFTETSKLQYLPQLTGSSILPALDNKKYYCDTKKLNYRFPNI
T25 sequence (Q00526 whole entry): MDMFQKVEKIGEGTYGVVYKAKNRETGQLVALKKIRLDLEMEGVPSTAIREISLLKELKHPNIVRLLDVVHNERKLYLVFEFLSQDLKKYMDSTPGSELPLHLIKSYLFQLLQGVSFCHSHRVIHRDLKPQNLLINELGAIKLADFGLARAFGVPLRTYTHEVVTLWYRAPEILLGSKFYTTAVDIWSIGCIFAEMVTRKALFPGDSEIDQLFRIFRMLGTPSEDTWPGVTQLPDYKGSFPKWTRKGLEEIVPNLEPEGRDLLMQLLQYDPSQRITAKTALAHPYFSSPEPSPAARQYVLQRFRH
T41 sequence (Q8TDC3 whole entry): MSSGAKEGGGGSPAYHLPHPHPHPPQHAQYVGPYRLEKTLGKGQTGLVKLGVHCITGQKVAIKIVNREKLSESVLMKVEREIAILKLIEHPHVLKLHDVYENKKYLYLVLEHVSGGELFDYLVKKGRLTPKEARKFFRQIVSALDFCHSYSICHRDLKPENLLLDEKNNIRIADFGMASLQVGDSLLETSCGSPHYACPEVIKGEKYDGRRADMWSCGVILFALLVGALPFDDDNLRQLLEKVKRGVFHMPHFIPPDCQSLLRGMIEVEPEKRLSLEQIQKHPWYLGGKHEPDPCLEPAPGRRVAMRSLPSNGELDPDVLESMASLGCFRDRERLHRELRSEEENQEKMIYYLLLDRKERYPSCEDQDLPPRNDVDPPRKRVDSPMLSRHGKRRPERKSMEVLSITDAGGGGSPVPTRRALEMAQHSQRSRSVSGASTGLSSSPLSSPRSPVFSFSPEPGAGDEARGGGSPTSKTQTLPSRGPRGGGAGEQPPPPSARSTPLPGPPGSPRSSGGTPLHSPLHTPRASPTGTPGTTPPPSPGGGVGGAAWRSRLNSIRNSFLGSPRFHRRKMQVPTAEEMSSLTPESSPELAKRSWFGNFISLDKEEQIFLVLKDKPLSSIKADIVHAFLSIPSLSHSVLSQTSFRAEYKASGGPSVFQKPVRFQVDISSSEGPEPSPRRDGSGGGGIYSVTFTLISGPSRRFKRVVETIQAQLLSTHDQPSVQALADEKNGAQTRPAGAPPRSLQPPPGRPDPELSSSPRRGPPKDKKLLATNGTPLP
T18 sequence (P19525 whole entry): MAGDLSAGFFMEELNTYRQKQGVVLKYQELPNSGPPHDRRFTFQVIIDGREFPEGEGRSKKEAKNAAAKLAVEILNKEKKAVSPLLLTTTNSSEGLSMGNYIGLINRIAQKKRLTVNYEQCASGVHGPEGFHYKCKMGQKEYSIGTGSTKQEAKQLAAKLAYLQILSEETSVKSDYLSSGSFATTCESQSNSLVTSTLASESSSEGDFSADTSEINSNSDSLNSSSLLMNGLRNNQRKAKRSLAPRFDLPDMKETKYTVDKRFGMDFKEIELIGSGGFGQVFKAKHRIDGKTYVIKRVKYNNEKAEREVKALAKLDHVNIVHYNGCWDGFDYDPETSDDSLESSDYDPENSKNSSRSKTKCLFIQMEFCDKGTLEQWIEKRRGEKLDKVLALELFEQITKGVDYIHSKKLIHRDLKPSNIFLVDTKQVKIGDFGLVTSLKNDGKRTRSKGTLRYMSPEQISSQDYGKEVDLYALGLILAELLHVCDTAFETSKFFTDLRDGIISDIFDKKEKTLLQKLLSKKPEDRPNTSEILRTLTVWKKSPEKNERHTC

## COc1ccc(OC)c(-n2nnc(S(=O)(=O)c3ccc(C(C)(C)C)cc3)c2C)c1 [SPA70]
MINK
  inhibition at 10 µM: 0%
ABL2
  inhibition at 10 µM: 0%
VEGFR2
  inhibition at 10 µM: 0%
PLK1
  inhibition at 10 µM: 0%
GRK7
  inhibition at 10 µM: 0%
LRRK2
  inhibition at 10 µM: 0%
FES
  inhibition at 10 µM: 40%
GSK3A
  %Inhibition by 10 μM SPA70: not inhibited
GSK3A; [1]
  inhibition at 10 µM: 0%
MYO3B
  inhibition at 10 µM: 5%
LYN
  inhibition at 10 µM: 0%
TGFBR2
  inhibition at 10 µM: 1%
PKAC-beta
  %Inhibition by 10 μM SPA70: not inhibited
PKAC-beta; [1]
  inhibition at 10 µM: 0%
CDKL1
  inhibition at 10 µM: 9%
PRKCE
  inhibition at 10 µM: 0%
MEK3
  inhibition at 10 µM: 0%
TXK
  inhibition at 10 µM: 0%
LZK
  %Inhibition by 10 μM SPA70: 0%
PRKR
  %Inhibition by 10 μM SPA70: 26%
PRKD2
  inhibition at 10 µM: 9%
FGR
  inhibition at 10 µM: 6%
PRKX
  inhibition at 10 µM: 8%
CLK3
  inhibition at 10 µM: 0%
EPHA6
  inhibition at 10 µM: 0%
SNARK
  %Inhibition by 10 μM SPA70: 8%
CDK3
  %Inhibition by 10 μM SPA70: 3%
EGFR
  %Inhibition by 10 μM SPA70: 0%
TLK2
  inhibition at 10 µM: 0%
ERK1
  inhibition at 10 µM: 0%
IKK-beta
  inhibition at 10 µM: 26%
PIK3CA
  inhibition at 10 µM: 0%
PHKG1
  inhibition at 10 µM: 0%
CSNK2A2
  inhibition at 10 µM: 10%
TRPM6
  inhibition at 10 µM: 31%
ROCK1
  inhibition at 10 µM: 3%
ULK1
  %Inhibition by 10 μM SPA70: 5%
HIPK4
  inhibition at 10 µM: 0%
PCTK1
  inhibition at 10 µM: 4%
LIMK1
  inhibition at 10 µM: 0%
PAK7
  inhibition at 10 µM: 26%
EPHA7
  inhibition at 10 µM: 0%
BRSK1
  inhibition at 10 µM: 8%
PIP5K1C
  %Inhibition by 10 μM SPA70: 0%
SRC
  inhibition at 10 µM: 0%
